From patent US8426345B2, “Method of drug design” (Alchemia Limited, priority 2005, dated 2013)

Target: T1, Human SST5 somatostatin receptor (Homo sapiens, UniProt P35346)
T1 construct: expressed in transfected cells; host or cells: HEK-293 EBNA cells (membranes)
Experiment: Filter plate radio-ligand binding assay for SST5 receptor ([125I]SST-14 displacement)
Details: for % SST5 radio-ligand binding displaced at conc 0.25: conc 0.25 μM; for % SST5 radio-ligand binding displaced at conc 0.25 / % SST5 radio-ligand binding displaced at conc 1.0: 3P library; for % SST5 radio-ligand binding displaced at conc 1.0: conc 1.0 μM; for % SST5 radio-ligand binding displaced at conc 50: compound conc 50 μM; for % SST5 radio-ligand binding displaced at conc 50 / % SST5 radio-ligand binding displaced at conc 250 / % SST5 radio-ligand binding displaced at conc 500: 2P library; for % SST5 radio-ligand binding displaced at conc 250: compound conc 250 μM; for % SST5 radio-ligand binding displaced at conc 500: compound conc 500 μM

T1 sequence (P35346 whole entry): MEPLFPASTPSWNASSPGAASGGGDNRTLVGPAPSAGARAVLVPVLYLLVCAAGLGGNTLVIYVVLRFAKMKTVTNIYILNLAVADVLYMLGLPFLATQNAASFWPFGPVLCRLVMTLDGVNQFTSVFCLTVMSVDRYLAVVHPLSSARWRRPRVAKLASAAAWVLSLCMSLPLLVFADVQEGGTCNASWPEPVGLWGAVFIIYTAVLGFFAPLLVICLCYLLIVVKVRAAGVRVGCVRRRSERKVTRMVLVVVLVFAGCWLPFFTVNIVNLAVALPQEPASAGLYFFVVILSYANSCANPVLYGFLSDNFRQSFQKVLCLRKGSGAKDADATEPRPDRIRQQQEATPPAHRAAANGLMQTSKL

Row | SMILES | % SST5 radio-ligand binding displaced at conc 0.25 | % SST5 radio-ligand binding displaced at conc 1.0 | % SST5 radio-ligand binding displaced at conc 50 | % SST5 radio-ligand binding displaced at conc 250 | % SST5 radio-ligand binding displaced at conc 500
1 | COC1C(O)C(COCc2ccc(Cl)cc2)OC(OCc2ccc3ccccc3c2)C1NC(=O)CCN (single isomer, unassigned) [Compound 94] | − (% SST5 radio-ligand binding displaced at cone (μM) −<40%) | − (% SST5 radio-ligand binding displaced at cone (μM) −<40%) | – | – | –
2 | CO[C@H]1[C@H](O)[C@@H](COCc2ccc(Cl)cc2)OC(OCc2ccc3ccccc3c2)[C@@H]1NC(=O)CCN (single isomer, unassigned) [Compound 95] | − (% SST5 radio-ligand binding displaced at cone (μM) −<40%) | − (% SST5 radio-ligand binding displaced at cone (μM) −<40%) | – | – | –
3 | CO[C@H]1[C@H](O)[C@@H](COCc2ccc(-c3ccccc3)cc2)OC(OCc2ccc3ccccc3c2)[C@@H]1NC(=O)CCN (single isomer, unassigned) [Compound 96] | − (% SST5 radio-ligand binding displaced at cone (μM) −<40%) | − (% SST5 radio-ligand binding displaced at cone (μM) −<40%) | – | – | –
4 | COC[C@H]1OC(OCc2ccc(Cl)cc2)[C@H](NC(=O)CN)[C@@H](OCc2ccccc2)[C@@H]1O (single isomer, unassigned) [Compound 168] | − (% SST5 radio-ligand binding displaced at cone (μM) −<40%) | − (% SST5 radio-ligand binding displaced at cone (μM) −<40%) | – | – | –
5 | COC[C@H]1OC(OCc2ccc(Cl)cc2)[C@H](NC(=O)CN)[C@@H](OCc2ccccc2)[C@@H]1O (single isomer, unassigned) [Compound 169] | − (% SST5 radio-ligand binding displaced at cone (μM) −<40%) | − (% SST5 radio-ligand binding displaced at cone (μM) −<40%) | – | – | –
6 | COC[C@H]1OC(OCc2ccc(Cl)cc2)[C@H](NC(=O)CN)[C@@H](OCc2ccc(Cl)cc2)[C@@H]1O (single isomer, unassigned) [Compound 170] | − (% SST5 radio-ligand binding displaced at cone (μM) −<40%) | − (% SST5 radio-ligand binding displaced at cone (μM) −<40%) | – | – | –
7 | COC[C@H]1OC(OCc2ccc(Cl)cc2)[C@H](NC(=O)CN)[C@@H](OCc2ccc(Cl)cc2)[C@@H]1O (single isomer, unassigned) [Compound 171] | − (% SST5 radio-ligand binding displaced at cone (μM) −<40%) | − (% SST5 radio-ligand binding displaced at cone (μM) −<40%) | – | – | –
8 | COC[C@H]1OC(OCc2ccc(Cl)cc2)[C@H](NC(=O)CN)[C@@H](OCc2ccc(-c3ccccc3)cc2)[C@@H]1O (single isomer, unassigned) [Compound 172] | − (% SST5 radio-ligand binding displaced at cone (μM) −<40%) | − (% SST5 radio-ligand binding displaced at cone (μM) −<40%) | – | – | –
9 | COC[C@H]1O[C@H](OCc2ccc3ccccc3c2)[C@H](NC(=O)CCN)[C@@H](OC)[C@@H]1O [Compound 5] | – | – | − (% SST5 radio-ligand binding displaced at cone (μM) −<40%) | + (% SST5 radio-ligand binding displaced at cone (μM) 60>+>40%) | ++ (% SST5 radio-ligand binding displaced at conc (μM) >60%)
10 | COC[C@H]1O[C@H](OCc2ccc3ccccc3c2)[C@H](NC(=O)CCCN)[C@@H](OC)[C@@H]1O [Compound 6] | – | – | − (% SST5 radio-ligand binding displaced at cone (μM) −<40%) | + (% SST5 radio-ligand binding displaced at cone (μM) 60>+>40%) | ++ (% SST5 radio-ligand binding displaced at conc (μM) >60%)
11 | CO[C@H]1[C@H](O)[C@@H](COCc2ccc(Cl)cc2)O[C@@H](SC)[C@@H]1NC(=O)CN [Compound 7] | – | – | − (% SST5 radio-ligand binding displaced at cone (μM) −<40%) | − (% SST5 radio-ligand binding displaced at cone (μM) −<40%) | − (% SST5 radio-ligand binding displaced at cone (μM) −<40%)
12 | CO[C@H]1[C@H](O)[C@@H](COCc2ccc3ccccc3c2)O[C@@H](SC)[C@@H]1NC(=O)CN [Compound 8] | – | – | − (% SST5 radio-ligand binding displaced at cone (μM) −<40%) | + (% SST5 radio-ligand binding displaced at cone (μM) 60>+>40%) | ++ (% SST5 radio-ligand binding displaced at conc (μM) >60%)
13 | COC[C@H]1O[C@@H](SC)[C@H](NC(=O)CN)[C@@H](OCc2ccc(Cl)cc2)[C@@H]1O [Compound 9] | – | – | − (% SST5 radio-ligand binding displaced at cone (μM) −<40%) | − (% SST5 radio-ligand binding displaced at cone (μM) −<40%) | − (% SST5 radio-ligand binding displaced at cone (μM) −<40%)
14 | COC[C@H]1O[C@@H](SC)[C@H](NC(=O)CN)[C@@H](OCc2ccc3ccccc3c2)[C@@H]1O [Compound 10] | – | – | − (% SST5 radio-ligand binding displaced at cone (μM) −<40%) | − (% SST5 radio-ligand binding displaced at cone (μM) −<40%) | − (% SST5 radio-ligand binding displaced at cone (μM) −<40%)
15 | COC[C@H]1O[C@H](OCc2ccc(Cl)cc2)[C@H](NC(=O)CN)[C@@H](OC)[C@@H]1O [Compound 11] | – | – | − (% SST5 radio-ligand binding displaced at cone (μM) −<40%) | − (% SST5 radio-ligand binding displaced at cone (μM) −<40%) | − (% SST5 radio-ligand binding displaced at cone (μM) −<40%)
16 | COC[C@H]1O[C@H](OCc2ccc3ccccc3c2)[C@H](NC(=O)CN)[C@@H](OC)[C@@H]1O [Compound 12] | – | – | − (% SST5 radio-ligand binding displaced at cone (μM) −<40%) | − (% SST5 radio-ligand binding displaced at cone (μM) −<40%) | − (% SST5 radio-ligand binding displaced at cone (μM) −<40%)
17 | COC[C@H]1O[C@@H](OCc2ccc(Cl)cc2)[C@H](NC(=O)CN)[C@@H](OC)[C@@H]1O [Compound 13] | – | – | − (% SST5 radio-ligand binding displaced at cone (μM) −<40%) | − (% SST5 radio-ligand binding displaced at cone (μM) −<40%) | − (% SST5 radio-ligand binding displaced at cone (μM) −<40%)
18 | COC[C@H]1O[C@@H](OCc2ccc3ccccc3c2)[C@H](NC(=O)CN)[C@@H](OC)[C@@H]1O [Compound 14] | – | – | − (% SST5 radio-ligand binding displaced at cone (μM) −<40%) | − (% SST5 radio-ligand binding displaced at cone (μM) −<40%) | − (% SST5 radio-ligand binding displaced at cone (μM) −<40%)
19 | CO[C@H]1[C@H](O)[C@@H](COCc2ccc(Cl)cc2)O[C@@H](SC)[C@@H]1NC(=O)CCN [Compound 15] | – | – | − (% SST5 radio-ligand binding displaced at cone (μM) −<40%) | − (% SST5 radio-ligand binding displaced at cone (μM) −<40%) | − (% SST5 radio-ligand binding displaced at cone (μM) −<40%)
20 | CO[C@H]1[C@H](O)[C@@H](COCc2ccc3ccccc3c2)O[C@@H](SC)[C@@H]1NC(=O)CCN [Compound 16] | – | – | − (% SST5 radio-ligand binding displaced at cone (μM) −<40%) | − (% SST5 radio-ligand binding displaced at cone (μM) −<40%) | + (% SST5 radio-ligand binding displaced at cone (μM) 60>+>40%)
21 | COC[C@H]1O[C@@H](SC)[C@H](NC(=O)CCN)[C@@H](OCc2ccc(Cl)cc2)[C@@H]1O [Compound 17] | – | – | − (% SST5 radio-ligand binding displaced at cone (μM) −<40%) | − (% SST5 radio-ligand binding displaced at cone (μM) −<40%) | − (% SST5 radio-ligand binding displaced at cone (μM) −<40%)
22 | COC[C@H]1O[C@@H](SC)[C@H](NC(=O)CCN)[C@@H](OCc2ccc3ccccc3c2)[C@@H]1O [Compound 18] | – | – | − (% SST5 radio-ligand binding displaced at cone (μM) −<40%) | − (% SST5 radio-ligand binding displaced at cone (μM) −<40%) | − (% SST5 radio-ligand binding displaced at cone (μM) −<40%)
23 | COC[C@H]1O[C@H](OCc2ccc(Cl)cc2)[C@H](NC(=O)CCN)[C@@H](OC)[C@@H]1O [Compound 19] | – | – | − (% SST5 radio-ligand binding displaced at cone (μM) −<40%) | − (% SST5 radio-ligand binding displaced at cone (μM) −<40%) | ++ (% SST5 radio-ligand binding displaced at conc (μM) >60%)
24 | COC[C@H]1O[C@@H](OCc2ccc(Cl)cc2)[C@H](NC(=O)CCN)[C@@H](OC)[C@@H]1O [Compound 20] | – | – | − (% SST5 radio-ligand binding displaced at cone (μM) −<40%) | − (% SST5 radio-ligand binding displaced at cone (μM) −<40%) | + (% SST5 radio-ligand binding displaced at cone (μM) 60>+>40%)
25 | COC[C@H]1O[C@@H](OCc2ccc3ccccc3c2)[C@H](NC(=O)CCN)[C@@H](OC)[C@@H]1O [Compound 21] | – | – | − (% SST5 radio-ligand binding displaced at cone (μM) −<40%) | + (% SST5 radio-ligand binding displaced at cone (μM) 60>+>40%) | ++ (% SST5 radio-ligand binding displaced at conc (μM) >60%)
26 | CO[C@H]1[C@H](O)[C@@H](COCc2ccc(Cl)cc2)O[C@@H](SC)[C@@H]1NC(=O)CCCN [Compound 22] | – | – | − (% SST5 radio-ligand binding displaced at cone (μM) −<40%) | − (% SST5 radio-ligand binding displaced at cone (μM) −<40%) | − (% SST5 radio-ligand binding displaced at cone (μM) −<40%)
